Data published in PMC9421654, “Discovery of Substituted Di(pyridin-2-yl)-1,2,4-thiadiazol-5-amines as Novel Macrofilaricidal Compounds for the Treatment of Human Filarial Infections” (Journal of Medicinal Chemistry, 2022).
Converted amounts (≈) assume the structure as drawn. “And” between values parts separate entries of the source, which are not always exact repeats. Equal values may be shown once. Read-outs that look alike come from different tables or passages of the source. Marks after values point to notes of the source that are not given here.

Experiments:
[1] = Kinetic solubility measurement; format: physicochemical
Procedure, shortened: (§1)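 Human and rat liver microsomes (0.3 mg/mL) with 1 mM NADPH and 3µM substrate, 30 minutes at 37 °C in pH 7.4 phosphate/MgCl2, triplicate; LC-MS/MS percentage remaining. LogD: octanol/aqueous buffer (pH 7.4, 2.2, 6.8, 5), 24 h shaking at room temperature. Kinetic solubility: 200 µM, 2% DMSO, 24 h, filtered.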

[2] = LogD measurement (octanol-water); format: physicochemical
Procedure, shortened: as §1

[3] = test system: O. gutturosa adult male worms; assay: O. gutturosa adult worm ex vivo assay, motility; format: cell-based, Onchocerca gutturosa; conditions: Onchocerca gutturosa
Procedure, shortened: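 Adult male O. gutturosa from naturally infected cattle were cultured in supplemented MEM at 37 °C, 5% CO2, with four worms per concentration in serial 1-in-4 dilutions. Motility (0–10 scale) was scored every 24 h to 120 h. EC50 (geomean, n=2) for motility reduction came from 4PL fits, and viability was checked by MTT at 120 h.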

[4] = Liver microsome metabolic stability assay, mouse; format: in vitro ADME; conditions: 3 μM, 30 min; for Rat Microsomes: Tables 2 and 3, footnote: tested in the mouse liver microsome assay
Procedure: (§2) Liver Microsome Metabolic Stability Assay: Incubations were performed at 37 °C in a Dubnoff Shaking water bath using 2 mL 96-well incubation plates. Liver microsome protein concentration was 0.3 mg/mL the final concentration of NADPH was 1 mM. Substrate concentrations are 3µM, incubation time is 30 minutes, and all tests are done in triplicate. The incubation was conducted in 200 mM Phosphate buffer containing 2 mM magnesium chloride, pH=7.4 and the total incubation volume was 0.5 mL. Samples were analyzed via LC-MS/MS and reported as percentage remaining after 30minute incubation, which can then be converted to half-life and intrinsic clearance. […]

[5] = Liver microsome metabolic stability assay, human; format: in vitro ADME; conditions: 3 μM, 30 min
Procedure: as §2

[6] = test system: O. gutturosa adult male worms; assay: O. gutturosa adult worm ex vivo assay, MTT/formazan viability; format: cell-based, Onchocerca gutturosa; conditions: Onchocerca gutturosa, supplement; SD in brackets in the PDF table; read-out: O. gutturosa EC50 (uM) MTT viability inhibition
Procedure, shortened: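 Adult male worms from naturally infected Gambian cattle were kept individually in MEM with 10% newborn calf serum at 37 °C, 5% CO2; four worms per concentration. Motility was scored 0-10 every 24 h to 120 h as a percentage of maximum, with ≥50% reduction versus untreated counted active. Afterwards, MTT (0.5 mg/mL, 30 min) formazan was read at 490 nm.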

[7] = test system: O. volvulus L5 larvae; assay: O. volvulus L5 ex vivo assay, MTT viability; format: cell-based, Onchocerca volvulus; conditions: Day 21, 1 uM
Procedure: This culturing medium was then added in transwell 24-well plates containing human umbilical vein endothelial cell (HUVEC) monolayers, containing the L4 larvae. A week prior to conducting an assay, the cultured O. volvulus larvae (L5) were transferred into a Petri dish containing fresh medium. […] After the transfer of O. volvulus L5 to the plates, the test compounds were dissolved in DMSO, added to each well, and incubated at 37 °C in a 5% CO2. The media containing freshly prepared compounds were partially replaced every 2–3 days for 14 days. After 14 days, the media were completely replaced. The untreated control contains the media described above with a final concentration of 0.05% DMSO. […] The motility was measured visually by two operators. […] Following washout and incubation during 1 h in PBS under 5% CO2, worms were observed under an inverted microscope. Worms were considered dead if no staining or less than 50% within the worm was observed. Otherwise, if worms stained blue or more than 50% stained, then they are considered alive. All test treatments were performed in duplicates. Significance was determined using a t test.

[8] = test system: O. volvulus L5 larvae; assay: O. volvulus L5 ex vivo assay, motility; format: cell-based; conditions: Onchocerca volvulus, 504 h, read-out: O. volvulus L5 % inhibition of motility
Procedure: O. volvulus larvae (L4) were prepared using cryopreserved O. volvulus L3 cultured in a medium containing 1:1 NCTC-109 and IMDM (Iscove’s modified Dulbecco’s medium) supplemented with Glutamax (1×) and 2× Antibiotic-Antimycotic (Life Technologies). This culturing medium was then added in transwell 24-well plates containing human umbilical vein endothelial cell (HUVEC) monolayers, containing the L4 larvae. A week prior to conducting an assay, the cultured O. volvulus larvae (L5) were transferred into a Petri dish containing fresh medium. Aliquots of 8–10 worms were retrieved from the Petri dish and placed inside new transwells over newly seeded HUVEC monolayers in the medium described above. After the transfer of O. volvulus L5 to the plates, the test compounds were dissolved in DMSO, added to each well, and incubated at 37 °C in a 5% CO2. The media containing freshly prepared compounds were partially replaced every 2–3 days for 14 days. After 14 days, the media were completely replaced. The untreated control contains the media described above with a final concentration of 0.05% DMSO. The motility was measured every 2–3 days with the following scale: 100% motility, constant coiling movement; 75% motility, slower coiling; 50% motility, slow and intermittent movement; 25% motility, very slow movement or twitching; and 0% motility, no movement. The motility was measured visually by two operators. On day 28, the viability of O. volvulus L5 was measured by MTT. Following washout and incubation during 1 h in PBS under 5% CO2, worms were observed under an inverted microscope. Worms were considered dead if no staining or less than 50% within the worm was observed. Otherwise, if worms stained blue or more than 50% stained, then they are considered alive. All test treatments were performed in duplicates. Significance was determined using a t test.

[9] = Liver S9 metabolic stability assay, human; format: in vitro ADME; conditions: 3 μM, 60 min
Procedure, shortened: (§3)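 Rat and human liver S9 (0.75 and 1.2 mg/ml) with 1 mM NADPH, 0.5 mM UDPGA, 2.5 mM GSH, 0.05 mg/ml PAPS, 3µM substrate, 60 min at 37 °C in Tris/MgCl2 pH 7.4. Mouse microsomes 0.3 mg/mL, 1 mM NADPH, 3µM, 30 min, phosphate pH 7.4. LC-MS/MS, % remaining, triplicate.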

[10] = Liver S9 metabolic stability assay, rat; format: in vitro ADME; conditions: 3 μM, 60 min
Procedure, shortened: as §3

[11] = target: T1, hERG potassium channels (KCNH2, expressed in HEK293 cells) (Homo sapiens, UniProt Q12809); assay: hERG inhibition; format: cell-based; conditions: supplement
T1 construct: expressed in transfected cells
T1 sequence (Q12809 whole entry): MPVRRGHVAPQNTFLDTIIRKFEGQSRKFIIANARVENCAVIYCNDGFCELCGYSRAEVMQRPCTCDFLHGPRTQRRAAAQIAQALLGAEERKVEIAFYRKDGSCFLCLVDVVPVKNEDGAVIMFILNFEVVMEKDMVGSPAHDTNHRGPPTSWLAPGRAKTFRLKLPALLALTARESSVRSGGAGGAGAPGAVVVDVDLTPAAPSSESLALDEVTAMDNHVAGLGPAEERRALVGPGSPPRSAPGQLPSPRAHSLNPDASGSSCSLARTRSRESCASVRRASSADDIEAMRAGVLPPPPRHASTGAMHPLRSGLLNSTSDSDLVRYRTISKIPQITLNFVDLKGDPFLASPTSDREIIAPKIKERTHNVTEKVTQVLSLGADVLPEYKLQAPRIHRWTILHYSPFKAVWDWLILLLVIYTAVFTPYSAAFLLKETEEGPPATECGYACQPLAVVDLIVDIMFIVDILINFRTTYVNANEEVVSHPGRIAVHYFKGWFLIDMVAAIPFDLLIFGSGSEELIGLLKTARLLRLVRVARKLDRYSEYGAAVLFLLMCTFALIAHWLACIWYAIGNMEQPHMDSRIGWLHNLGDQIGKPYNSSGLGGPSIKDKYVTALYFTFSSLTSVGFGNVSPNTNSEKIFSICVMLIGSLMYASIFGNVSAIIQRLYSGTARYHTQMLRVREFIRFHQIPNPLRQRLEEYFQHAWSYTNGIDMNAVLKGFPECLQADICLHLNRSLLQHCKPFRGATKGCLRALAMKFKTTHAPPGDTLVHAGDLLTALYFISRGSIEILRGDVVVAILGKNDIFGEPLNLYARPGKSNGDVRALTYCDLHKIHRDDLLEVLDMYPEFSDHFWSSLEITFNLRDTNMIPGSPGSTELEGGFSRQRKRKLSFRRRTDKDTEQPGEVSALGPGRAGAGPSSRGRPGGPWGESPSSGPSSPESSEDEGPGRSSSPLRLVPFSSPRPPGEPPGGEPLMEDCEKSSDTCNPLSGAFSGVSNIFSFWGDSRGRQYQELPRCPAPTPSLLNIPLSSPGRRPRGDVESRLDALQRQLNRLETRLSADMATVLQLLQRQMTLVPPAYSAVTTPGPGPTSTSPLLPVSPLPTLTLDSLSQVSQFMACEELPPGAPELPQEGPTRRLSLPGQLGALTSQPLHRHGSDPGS

[12] = target: T2, P-gp (MDR1) (Homo sapiens, UniProt P08183); assay: MDCK/MDR1 permeability and efflux; format: in vitro ADME; conditions: dog
T2 construct: expressed in transfected cells; host or cells: MDCK (Madin Darby canine kidney) cells
T2 sequence (P08183 whole entry): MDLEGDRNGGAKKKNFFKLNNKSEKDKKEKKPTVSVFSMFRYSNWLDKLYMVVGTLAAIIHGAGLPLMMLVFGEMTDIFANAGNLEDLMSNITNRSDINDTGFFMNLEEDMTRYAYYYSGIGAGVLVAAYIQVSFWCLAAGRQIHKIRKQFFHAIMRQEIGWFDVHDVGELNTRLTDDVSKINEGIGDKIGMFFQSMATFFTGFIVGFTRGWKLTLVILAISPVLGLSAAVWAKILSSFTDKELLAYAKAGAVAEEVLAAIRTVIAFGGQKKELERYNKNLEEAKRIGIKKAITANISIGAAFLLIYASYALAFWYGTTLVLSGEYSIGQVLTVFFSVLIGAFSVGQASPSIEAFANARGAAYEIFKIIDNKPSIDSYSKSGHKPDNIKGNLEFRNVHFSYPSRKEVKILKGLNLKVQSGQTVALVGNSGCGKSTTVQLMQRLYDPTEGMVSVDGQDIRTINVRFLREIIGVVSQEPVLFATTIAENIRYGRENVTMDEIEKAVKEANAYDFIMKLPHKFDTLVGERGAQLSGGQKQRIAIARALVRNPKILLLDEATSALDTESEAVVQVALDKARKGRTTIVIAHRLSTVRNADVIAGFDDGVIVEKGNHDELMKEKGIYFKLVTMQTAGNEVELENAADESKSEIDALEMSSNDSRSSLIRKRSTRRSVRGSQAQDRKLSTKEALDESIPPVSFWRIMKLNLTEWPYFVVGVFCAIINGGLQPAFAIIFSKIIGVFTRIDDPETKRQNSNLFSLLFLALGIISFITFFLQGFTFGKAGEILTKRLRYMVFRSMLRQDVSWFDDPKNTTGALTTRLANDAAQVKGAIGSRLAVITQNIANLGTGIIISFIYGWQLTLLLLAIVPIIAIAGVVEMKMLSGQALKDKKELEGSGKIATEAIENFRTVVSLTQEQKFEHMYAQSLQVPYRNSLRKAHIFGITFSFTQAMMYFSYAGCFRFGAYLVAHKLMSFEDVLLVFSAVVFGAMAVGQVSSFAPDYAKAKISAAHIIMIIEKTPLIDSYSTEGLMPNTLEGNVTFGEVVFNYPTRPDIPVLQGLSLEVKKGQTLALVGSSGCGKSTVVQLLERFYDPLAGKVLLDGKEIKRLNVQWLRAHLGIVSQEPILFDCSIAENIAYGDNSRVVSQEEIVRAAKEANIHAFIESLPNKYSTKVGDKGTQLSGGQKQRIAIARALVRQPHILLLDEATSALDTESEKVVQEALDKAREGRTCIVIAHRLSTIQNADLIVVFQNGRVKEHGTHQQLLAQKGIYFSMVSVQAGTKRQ
Text: Our approach was to target compounds with efflux ratio (ER) >2.5 in the MDCK cell line transfected with MDR1 (multidrug resistance-1 transfected Madin Darby canine kidney cell line). […] Our goal was to impart structural elements designed to impart Pgp recognition.

[13] = test system: THLE-2 cells; assay: THLE-2 cytotoxicity assay (ATP); conditions: Homo sapiens, THLE-2, read-out: THLE IC50
Procedure: In vitro cytotoxicity of select compounds was tested in a “normal” proliferating transformed human liver epithelial (THLE-2) cell line.[35] Compounds were incubated in THLE-2 cells for 24 and 72 h, and adenosine triphosphate (ATP) levels were used as an indicator of cell viability.
THLE-2 Cytotoxicity Assay: THLE-2 cells (ATCC, catalog #CRL-2706) were plated in LHC-8 Media (Invitrogen, catalog #12679015) supplemented with fetal bovine serum (GE, catalog #SH30088.03), 70 ng/mL phosphoethanolamine (Sigma, catalog #P0503), 5 ng/mL EGF (Sigma, catalog #E9644), 1X penicillin/streptomycin (Gibco, catalog #15140148), and 1X glutamine (Invitrogen, catalog #25030024) in 384-well clear-bottom, black walled plates at a density of 3750 cells/well (15μL/well). After plating, cells were incubated overnight at 37°C in an incubator with 5% CO2 and 90% humidity. Compounds were first serially diluted in dimethyl sulfoxide then diluted in LHC-8 media growth media to 2X concentration. Cells were dosed with 15μL of each dose for final concentrations between 0.01 – 300 μM. Cells were incubated with compounds for 24 or 72 hours. Cytotoxicity was determined with Cell Titer Glo Luminescent ATP Assay (Promega, catalog #G7573) according to the manufacturer’s instructions. Tamoxifen (Sigma, catalog #BC9353476) was used as a positive control. levels at each dose were normalized to that of cells dosed with dimethyl sulfoxide vehicle alone and IC50 values were calculated from non-linear regression fits of dose-response curves plotted

[14] = supplement, read-out: measured logD
[15] = read-out: O. gutturosa EC50 μM (SD), ex vivo adult worm motility reduction, SD in brackets
[16] = read-out: O. gutturosa EC50 (uM) motility inhibition, supplement, SD in brackets in the PDF table
[17] = read-out: O. gutturosa EC50, adult worm motility, bound stated

Row | SMILES | solubility kinetic at 24 h ([1]; 10 mM DMSO stock solutions) | logD at 24 h [2, 14] | EC50 [3, 15] | EC50 [3, 16] | Rat Microsomes, (m) ([4]; Table 1, tested in the mouse not rat) | Human Microsomes [5] | EC50 [6] | O. volvulus L5 % inhibition of viability [7] | logD at 24 h ([2]; pH 7.4, read-out: logD) | EC50 [3, 17] | inhibition at 1 µM [8] | Human S9 metabolic stability [9] | Rat S9 metabolic stability [10] | IC50 [11] | Papp A→B [12] | IC50 [13] | Rat Microsomes [4] | solubility kinetic at 24 h ([1]; supplement) | fold less soluble than 47 ([1]; 24 h)
1 | Cc1cccnc1Nc1n[nH]c(-c2ccc(OC3CCOCC3)cn2)n1 [Compound 8, 3-Methyl-N-{5-[5-(oxan-4-yloxy)pyridin-2-yl]-4H-1,2,4-triazol-3-yl}pyridin-2-amine] | 202 µM (≈ 71.1 µg/mL) | 2 | 0.01 µM | 0.009 µM | 70 (m)^e % remaining | 92 % remaining | 0.004 µM |  |  |  |  |  |  |  |  |  |  |  | 
2 | CC(C)c1cccnc1Nc1nc(-c2ccc(OC3CC3)cn2)ns1 [Compound 23, 3-(5-Cyclopropoxypyridin-2-yl)-N-(3-isopropylpyridin-2-yl)-1,2,4-thiadiazol-5-amine] |  | 2.5 | 0.04 µM | 0.038 µM |  |  | 0.012 µM | 100% | 2.5 | < 0.1 µM | 100% | 39 % remaining | 78 % remaining |  |  |  |  |  | 
3 | CC(=O)N(C)c1cc(C(F)(F)F)cnc1Nc1nc(-c2ccc(OC(C)C)cn2)ns1 [Compound 54, N-(2-((3-(5-Isopropoxypyridin-2-yl)-1,2,4-thiadiazol-5-yl)amino)-5-(trifluoromethyl)pyridin-3-yl)-N-methylacetamide] | 13.1 µM (≈ 5.95 µg/mL) | 3.13 | 0.14 µM | 0.139 µM |  |  | 0.15 µM |  | 3.13 |  |  |  |  | > 30000 nM | 9.9 ×10⁻⁶ cm/s | 6100 nM |  |  | 
4 | Cc1cccnc1Nc1nc(-c2cc(C(=O)N(C)C)c(OC(C)C)cn2)ns1 [Compound 17] | 154 µM (≈ 61.6 µg/mL) | 2.3 | 0.63 µM | 0.626 µM |  | 91 % remaining | 0.5 µM |  | 2.3 |  |  |  |  |  |  |  | 90 % remaining |  | 
5 | CC(=O)N(C)c1cccnc1Nc1nc(-c2cc(C(F)(F)F)c(OC(C)C)cn2)ns1 [Compound 48] | 10.8 µM (≈ 4.86 µg/mL) | 3.5 | 3.71 µM |  |  |  | 1.05 µM |  | 3.5 |  |  |  |  | 26000 nM | 6.9 ×10⁻⁶ cm/s | 8300 nM |  | 10.8 µM (≈ 4.89 µg/mL) | 
6 | CC(C)Oc1cnc(-c2nsc(Nc3ncccc3N(C)C(=O)C3CC3)n2)cc1C(F)(F)F [Compound 49, N-(2-((3-(5-Isopropoxy-4-(trifluoromethyl)pyridin-2-yl)-1,2,4-thiadiazol-5-yl)amino)pyridine-3-yl)-N-methylcyclopropanecarboxamide] | 2.67 µM (≈ 1.28 µg/mL) | 3.63 | 1.11 µM |  |  |  | 3.7 µM |  | 3.63 |  |  |  |  | > 30000 nM | 8.8 ×10⁻⁶ cm/s | 18300 nM |  |  | 
7 | CC(C)Oc1cnc(-c2nsc(Nc3ncccc3C(C)C)n2)cc1C(F)(F)F [Compound 24, 3-(5-Isopropoxy-4-(trifluoromethyl)pyridin-2-yl)-N-(3-isopropylpyridin-2-yl)-1,2,4-thiadiazol-5-amine] | 1.05 µM (≈ 0.445 µg/mL) | 2.9 | 0.05 µM | 0.051 µM |  | 97 % remaining | 0.75 µM |  | 2.9 | < 0.1 µM |  |  |  |  |  |  | 96 % remaining |  | 
8 | CC(C)Oc1ccc(-c2nsc(Nc3ncccc3C(=O)N(C)C)n2)nc1 [Compound 61, 2-((3-(5-Isopropoxypyridin-2-yl)-1,2,4-thiadiazol-5-yl)amino)-N,N-dimethylnicotinamide] | 101 µM and 100.70 µM | 2.1 | 0.36 µM | 0.357 µM |  |  | 2.1 µM |  | 2.1 |  |  |  |  | > 30000 nM | 4.9 ×10⁻⁶ cm/s | 32500 nM |  |  | 
9 | CC(C)Oc1cnc(-c2nsc(Nc3ncccc3N(C)C)n2)cc1C(F)(F)F [Compound 34] |  | 2.9 | 0.04 µM | 0.036 µM |  | 98 % remaining | 0.53 µM |  | 2.9 |  |  |  |  |  |  |  | 93 % remaining |  | 10 fold
